Our source for the EC50 values is ChEMBL document CHEMBL1148610, “Novel potential anticancer naphthyl phosphoramidates of BVdU: separation of diastereoisomers and assignment of the absolute configuration of the phosphorus center” (J Med Chem, 2006).

Holding throughout (type): functional, cell-based
One assay concerns MDA-MB-231. The assay can be described thus: Cytostatic activity against human breast cancer MDA-MB-231 cell line.
A further assay concerns T-24. The assay can be described thus: Cytostatic activity against human bladder cancer T24 cell line.
For a further assay, the system named is PC-3. Put plainly: Cytostatic activity against human prostate cancer PC3 cell line.

As for `O=C(OCc1ccccc1)[C@H](Cc1ccccc1)NP(=O)(OCC1OC(n2cc(/C=C/Br)c(=O)[nH]c2=O)CC1O)Oc1cccc2ccccc12` (stereo partly specified), the half-maximal effective concentration (EC50) with MDA-MB-231 is 1.96 µM; with T-24, 269 µM; in the assay on PC-3, 5.8 µM.
As for `CCC(C)[C@H](NP(=O)(OC[C@H]1O[C@@H](n2cc(/C=C/Br)c(=O)[nH]c2=O)C[C@@H]1O)Oc1cccc2ccccc12)C(=O)OCc1ccccc1` (stereo partly specified), the EC50 in the assay on MDA-MB-231 amounted to 130 µM; in the assay on PC-3, 1.4 µM.
For `COC(=O)[C@H](C(C)C)P(=O)(OCC1OC(n2cc(/C=C/Br)c(=O)[nH]c2=O)CC1O)Oc1cccc2ccccc12` (stereo partly specified), the values for the EC50 in the assay with MDA-MB-231, in the assay with T-24 and in the assay on PC-3 were 14.8 µM, 43.5 µM and 15.8 µM, respectively.
For the compound `CCC(C)[C@H](NP(=O)(OC[C@H]1O[C@@H](n2cc(/C=C/Br)c(=O)[nH]c2=O)C[C@@H]1O)Oc1cccc2ccccc12)C(=O)OC` (stereo partly specified), the results for the EC50 with MDA-MB-231 and in the assay with PC-3 were 1.5 µM and 6.9 µM, respectively.
Regarding `C[C@H](NP(=O)(OCC1OC(n2cc(/C=C/Br)c(=O)[nH]c2=O)CC1O)Oc1cccc2ccccc12)C(=O)OC(C)(C)C` (stereo partly specified), the EC50 in the assay on MDA-MB-231 stood at 4.8 µM; in the assay with T-24 it was 4 µM; in the assay on PC-3 it was 11 µM.
`COC(=O)[C@H](CCSC)NP(=O)(OCC1OC(n2cc(/C=C/Br)c(=O)[nH]c2=O)CC1O)Oc1cccc2ccccc12` (stereo partly specified): the half-maximal effective concentration (EC50) with MDA-MB-231 was found to be 28.1 µM; in the assay with T-24, 19.6 µM; in the assay on PC-3, 44.6 µM.
The matching figures for `CC(C)[C@H](NP(=O)(OCC1OC(n2cc(/C=C/Br)c(=O)[nH]c2=O)CC1O)Oc1cccc2ccccc12)C(=O)OCc1ccccc1` (stereo partly specified): 5.9 µM, 12.7 µM and 8.3 µM.
As for `COC(=O)[C@@H]1CCCN1P(=O)(OCC1OC(n2cc(/C=C/Br)c(=O)[nH]c2=O)CC1O)Oc1cccc2ccccc12` (stereo partly specified), the concentration for a half-maximal effect (EC50) stood at 6.5 µM in the assay on MDA-MB-231, 0.4 µM in the assay with T-24 and 10.5 µM in the assay with PC-3.
Take `COC(=O)C(C)(C)NP(=O)(OC[C@H]1O[C@@H](n2cc(/C=C/Br)c(=O)[nH]c2=O)C[C@@H]1O)Oc1cccc2ccccc12` (stereo partly specified): the figures for the EC50 in the assay with MDA-MB-231 and in the assay on PC-3 were 0.32 µM and 65.9 µM, respectively.
Consider `C[C@@H](NP(=O)(OCC1OC(n2cc(/C=C/Br)c(=O)[nH]c2=O)CC1O)Oc1cccc2ccccc12)C(=O)OCc1ccccc1` (stereo partly specified), for which the figures for the half-maximal effective concentration (EC50) with MDA-MB-231, in the assay with T-24 and with PC-3 were 6.3 µM, 2.8 µM and 6.1 µM, respectively.
As for `COC(=O)[C@H](Cc1ccccc1)NP(=O)(OCC1OC(n2cc(/C=C/Br)c(=O)[nH]c2=O)CC1O)Oc1cccc2ccccc12` (stereo partly specified), the EC50 with MDA-MB-231 came out at 8.5 µM; in the assay with T-24, 5.3 µM; in the assay on PC-3, 10.2 µM.
As for `CC(C)(NP(=O)(OC[C@H]1O[C@@H](n2cc(/C=C/Br)c(=O)[nH]c2=O)C[C@@H]1O)Oc1cccc2ccccc12)C(=O)OCc1ccccc1` (stereo partly specified), the half-maximal effective concentration (EC50) in the assay with MDA-MB-231 turned out to be 2.7 µM; with PC-3 it was 1.5 µM.
`COC(=O)[C@@H](NP(=O)(OCC1OC(n2cc(/C=C/Br)c(=O)[nH]c2=O)CC1O)Oc1cccc2ccccc12)c1ccccc1` (stereo partly specified): the EC50 in the assay with MDA-MB-231 worked out at 105 µM; in the assay on PC-3, 1.7 µM.
Taken in the same sequence, the figures for `C[C@H](NP(=O)(O)Oc1cccc2ccccc12)C(=O)OCc1ccccc1` were 15.2 µM and 1.7 µM.
